From patent US20030077645A1, “Superfamily receptor chimeras, translocation assay for superfamily receptor ligands, and methods and kits for detecting and characterizing receptor ligands” (priority 2001, published 2003)

Tests used:
GR-RAR chimera = details: 100 nM ATRA, 6 hours
Procedure: (§3) The 1471.1 cell line was used for this transfection study. Cells were maintained in DMEM with 10% characterized fetal calf serum, L-glutamine, and antibiotics. For transient transfections, 2×10^5 cells were resuspended in cold DMEM without serum with the indicated plasmids and incubated on ice for 1 minute. Electroporations were done in an electroporator at 140 V, 3 pulses and 10 msec pulse length followed by a 10 minute recovery on ice. Cells were then plated and allowed to recover overnight in complete media.
(§4) Assay of Receptor Activity. Cells were electroporated with 5 ug pLTRLuc, containing the MMTV LTR, and 0.7 ug pCMV-betaGal with or without 10 ug of the indicated receptor expression vector as described above. Cells were plated in duplicate in 100 mm dishes in DMEM containing 10% charcoal/dextran-treated FCS, as described above, and allowed to recover overnight. The next day, cells were treated with the indicated ligand for 6 hours.
(§5) Transfected cells were treated with the indicated ligand for 6 hours. Fold inductions are shown in the bottom table, and were calculated from the luciferase activity, normalized to beta-galactosidase activity, of ligand induced samples compared to untreated controls.

Endogenous GR = biological target: T1, Endogenous GR (Mus musculus, UniProt P06537); experiment: cell-based; details: read-out: Fold induction (luciferase activity normalized to beta-galactosidase activity, vs untreated control)
T1 sequence (P06537 1-792): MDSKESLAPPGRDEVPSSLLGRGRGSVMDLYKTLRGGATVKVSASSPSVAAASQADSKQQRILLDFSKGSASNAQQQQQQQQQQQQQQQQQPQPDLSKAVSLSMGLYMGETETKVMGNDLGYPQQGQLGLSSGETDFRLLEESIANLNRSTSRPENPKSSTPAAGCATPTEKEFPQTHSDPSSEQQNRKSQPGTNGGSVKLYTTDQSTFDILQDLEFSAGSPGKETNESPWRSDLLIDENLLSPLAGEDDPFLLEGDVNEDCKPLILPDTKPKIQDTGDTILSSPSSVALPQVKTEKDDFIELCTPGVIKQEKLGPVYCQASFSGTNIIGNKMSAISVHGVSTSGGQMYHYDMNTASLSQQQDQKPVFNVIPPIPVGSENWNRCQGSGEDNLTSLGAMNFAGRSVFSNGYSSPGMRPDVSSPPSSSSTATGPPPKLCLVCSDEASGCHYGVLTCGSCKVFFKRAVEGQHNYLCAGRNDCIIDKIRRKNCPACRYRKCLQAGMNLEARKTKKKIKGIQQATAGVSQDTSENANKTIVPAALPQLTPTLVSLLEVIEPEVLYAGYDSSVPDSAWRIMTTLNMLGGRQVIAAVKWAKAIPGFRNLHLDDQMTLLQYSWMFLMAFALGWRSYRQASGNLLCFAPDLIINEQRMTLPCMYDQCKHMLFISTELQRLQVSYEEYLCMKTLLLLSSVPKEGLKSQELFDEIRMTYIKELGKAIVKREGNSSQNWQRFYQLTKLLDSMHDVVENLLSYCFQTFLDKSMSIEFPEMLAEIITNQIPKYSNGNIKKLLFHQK
Procedure: as §3, §4, §5

GFP-RAR (wild type RAR) = biological target: T2, GFP-RAR (wild type RAR) (Homo sapiens, UniProt P10276); details: 100 nM ligand, 1 hour, mouse mammary adenocarcinoma cells
T2 sequence (P10276 1-462): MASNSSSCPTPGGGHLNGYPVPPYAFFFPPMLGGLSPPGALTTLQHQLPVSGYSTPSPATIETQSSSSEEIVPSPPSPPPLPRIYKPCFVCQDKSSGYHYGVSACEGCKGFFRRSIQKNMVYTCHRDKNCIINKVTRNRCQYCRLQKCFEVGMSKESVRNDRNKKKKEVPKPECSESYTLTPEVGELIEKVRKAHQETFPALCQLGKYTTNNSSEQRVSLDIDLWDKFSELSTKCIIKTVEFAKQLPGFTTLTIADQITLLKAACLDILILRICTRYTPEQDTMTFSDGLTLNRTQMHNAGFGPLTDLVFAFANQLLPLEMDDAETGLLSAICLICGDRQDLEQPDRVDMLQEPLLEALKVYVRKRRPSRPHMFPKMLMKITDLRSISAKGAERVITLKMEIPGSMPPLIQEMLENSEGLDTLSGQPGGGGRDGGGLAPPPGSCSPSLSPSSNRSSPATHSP
Procedure: (§1) Fluorescence Microscopy. For fluorescence microscopy, cells were electroporated with 2 ug GFP-GR-RAR, GFP-GR, or GFP-RAR. […] GFP was excited with a 488 nm laser lines supplied from a air cooled argon laser. GFP emission was monitored between 505 and 590 nm with a pinhole setting of 1.0.
(§2) FIG. 3 is a series of photographs which depict subcellular trafficking of chimeric receptor. Mouse mammary adenocarcinoma cells were transfected with GFP-GR-RAR (panels A, B, C), GFP-GR (panels D, E, F), or GFP-RAR (panels G, H, I).

GFP-GR-RAR = details: 100 nM ligand, 1 hour, mouse mammary adenocarcinoma cells
Procedure: as §1, §2

SMILES: CC1=C(/C=C/C(C)=C/C=C/C(C)=C/C(=O)O)C(C)(C)CCC1 [ATRA, all-trans retinoic acid]
- Fold induction (luciferase activity normalized to beta-galactosidase activity, vs untreated control) (GR-RAR chimera): 18.6
- fold induction at 0.1 µM (Endogenous GR): 1.27
- Subcellular distribution of wild type RAR in response to ligand (GFP-RAR (wild type RAR)): always nuclear
- Subcellular distribution of GR-RAR in response to ligand (GFP-GR-RAR): translocated to the nucleus
